From ChEMBL document CHEMBL3885861, “Open TG-GATES”

Species on record: Rattus norvegicus
Experiment: Open TG-GATES - Regimen: Single
Type: toxicity, organism-based, Sprague-Dawley
Set-up: regimen Single, gender Male, age 6 weeks
Details: in vivo, po, 0 mg/kg, route gavage, dose level Control; for APTT / Bas / Eos / Fbg / Hb / Ht / Lym / MCH / MCV / Mono / Neu / PT / Plat / RBC / Ret / WBC: tissue Blood; for KIDNEY_L / KIDNEY_R / KIDNEY_TOTAL: tissue Kidney; for LIVER: tissue Liver

`NC(=O)N1c2ccccc2C=Cc2ccccc21` [CARBAMAZEPINE] was tested, and the TERMINAL_BW (3 h) was 216.5 g, the APTT (3 h) was 20 s and the Bas (3 h) was 0%. The Eos (3 h) was 1%, the Fbg (3 h) was 213.8 mg/dL and the Hb (3 h) was 13.4 g/dL. The Ht (3 h) was 38.6%, the Lym (3 h) was 80% and the MCH (3 h) was 21.9 pg. For the same molecule, the MCV (3 h) was 63.2 fL, the Mono (3 h) was 2% and the Neu (3 h) was 16%. It also gave a PT (3 h) of 12.4 s, a Plat (3 h) of 131 x10_4/uL and an RBC (3 h) of 611.8 x10_4/ul. It also gave a Ret (3 h) of 6.3%, a WBC (3 h) of 106.8 x10_2/uL and a KIDNEY_L (3 h) of 1 g. It also gave a KIDNEY_R (3 h) of 0.9 g, a KIDNEY_TOTAL (3 h) of 1.9 g and an LIVER (3 h) of 10 g. The ALP (3 h, tissue Plasma) was 846.4 IU/L, the ALT (3 h, tissue Plasma) was 33 IU/L and the AST (3 h, tissue Plasma) was 64.6 IU/L. It also gave a BUN (3 h, tissue Plasma) of 11.6 mg/dL, a CRE (3 h, tissue Plasma) of 0.4 mg/dL and a Ca (3 h, tissue Plasma) of 10.7 mg/dL. It also gave a Cl (3 h, tissue Plasma) of 103 meq/L, a DBIL (3 h, tissue Plasma) of 0.082 mg/dL and a GLC (3 h, tissue Plasma) of 199.2 mg/dL. The IP (3 h, tissue Plasma) was 9 mg/dL, the K (3 h, tissue Plasma) was 3.6 meq/L and the LDH (3 h, tissue Plasma) was 176.6 IU/L. It also gave a Na (3 h, tissue Plasma) of 141.2 meq/L, a PL (3 h, tissue Plasma) of 131.8 mg/dL and an RALB (3 h, tissue Plasma) of 3.3 g/dL. The TBIL (3 h, tissue Plasma) was 0.1 mg/dL, the TG (3 h, tissue Plasma) was 66.2 mg/dL and the TP (3 h, tissue Plasma) was 5.4 g/dL. It also gave a gamma-GTP (3 h, tissue Plasma) of 0.8 IU/L, a TERMINAL_BW (6 h) of 213.8 g and an APTT (6 h) of 19.3 s. It also gave a Bas (6 h) of 0%, an Eos (6 h) of 1% and a Fbg (6 h) of 220.2 mg/dL. The Hb (6 h) was 13.7 g/dL, the Ht (6 h) was 40% and the Lym (6 h) was 77%. It also gave an MCH (6 h) of 21.3 pg, an MCV (6 h) of 62.5 fL and a Mono (6 h) of 3.2%. The Neu (6 h) was 17.6%, the PT (6 h) was 12.5 s and the Plat (6 h) was 115.6 x10_4/uL. For the same molecule, the RBC (6 h) was 640.4 x10_4/ul, the Ret (6 h) was 6.6% and the WBC (6 h) was 94.2 x10_2/uL. It also gave a KIDNEY_L (6 h) of 1 g, a KIDNEY_R (6 h) of 1 g and a KIDNEY_TOTAL (6 h) of 2 g. For the same molecule, the LIVER (6 h) was 9.2 g, the ALP (6 h, tissue Plasma) was 858.4 IU/L and the ALT (6 h, tissue Plasma) was 37 IU/L. It also gave an AST (6 h, tissue Plasma) of 65.6 IU/L, a BUN (6 h, tissue Plasma) of 8.8 mg/dL and a CRE (6 h, tissue Plasma) of 0.4 mg/dL. It also gave a Ca (6 h, tissue Plasma) of 10.5 mg/dL, a Cl (6 h, tissue Plasma) of 103 meq/L and a DBIL (6 h, tissue Plasma) of 0.08 mg/dL. It also gave a GLC (6 h, tissue Plasma) of 196.8 mg/dL, an IP (6 h, tissue Plasma) of 9.4 mg/dL and a K (6 h, tissue Plasma) of 3.9 meq/L. The LDH (6 h, tissue Plasma) was 175.2 IU/L, the Na (6 h, tissue Plasma) was 140.2 meq/L and the PL (6 h, tissue Plasma) was 133.4 mg/dL. For the same molecule, the RALB (6 h, tissue Plasma) was 3.3 g/dL, the TBIL (6 h, tissue Plasma) was 0.1 mg/dL and the TG (6 h, tissue Plasma) was 60.4 mg/dL. It also gave a TP (6 h, tissue Plasma) of 5.5 g/dL.
